Measured values published in US8552253B2, “Screening of drug for attention deficit hyperactive disorder by using GIT1 knock-out mice as a novel ADHD mouse model” (Korea Advanced Institute of Science and Technology, priority 2011, dated 2013).

Columns and labels:
Assay type in all cases: in vivo
normal mouse (wild type) = assay: Open field test of normal mouse (control); conditions: peritoneal injection just before test, one time, amphetamine 4 mg/kg/day, methylphenidate 2 mg/kg/day, 60 minutes
Protocol: (§1) In order to observe hyperactivity of mice using the GIT1 knock-out mice of the present invention, an open field test was executed in a novel environment. A GIT1 knock-out mouse and a normal mouse (wild type) as a control, each mouse being aged 2 to 5 months, were prepared. An open space was prepared using a white box which is never exposed to the mice and has a dimension of 40-40-40 cm (width-length-height). After placing each mouse in the center of the open space and video shooting a distance of the mouse for 60 minutes, results thereof including, for example, a total distance, an average movement speed, a central space invasion rate, etc., were assayed through an activity analysis program. For analysis of behavior in the open space, amphetamine (4 mg/kg/day, one time) and methylphenidate (2 mg/kg/day, one time) used as ADHD protection drugs were administered through peritoneal injection just before placing the mouse therein, followed by immediately placing the mouse in the center of the open space.

GIT1 knock-out mouse [1] = assay: Open field test of GIT1 knock-out mouse; conditions: peritoneal injection just before test, one time, amphetamine 4 mg/kg/day, methylphenidate 2 mg/kg/day, 60 minutes, FIGS. 3B and 3C
Protocol: as §1

GIT1 knock-out mouse [2] = assay: Novel object recognition test of GIT1 knock-out mouse; conditions: peritoneal injection 4 mg/kg/day, 20 minutes before the sample phase, versus saline, FIG. 6C
Protocol: A novel object recognition test for assessment of object recognition and memory performance using the GIT1 knock-out mouse was performed in the same open space box as used in the open field test. The novel object recognition test included a sample phase and a test phase. During the sample phase, the mouse was allowed to detect the same two objects placed in an open space box for 10 minutes and, by video shooting the sample phase, times of observing both the objects by the mouse were recorded. As a result, it was found in FIG. 6A that a difference in object detection time between the normal mouse and the GIT1 knock-out mouse is not statistically significant. Further, one of the same two objects, for example, was replaced by a novel object not exposed to the mouse and, after 24 hours, a test period was proceeded. Such a test period was 10 minutes and a time of observing two objects by the mouse was measured during the test period. In this regard, if the nose end of the mouse contacts the object or the mouse heads for the object within 2 cm before the same, this was defined as the observation. For observing recovery of the object recognition and/or memory performance, the present inventive mouse was administered with amphetamine or saline through peritoneal injection at a dose of 4 mg/kg/day and placed in an open space box, 20 minutes before the sample phase.

GIT1 knock-out mouse [3] = assay: EEG analysis of theta section waveform in the frontal lobe of GIT1 knock-out mouse; conditions: after administering amphetamine, compared to a control having saline, FIG. 7C
Protocol: A process of assaying an abnormal theta section waveform and a power spectrum density in the frontal lobe using the GIT1 knock-out mouse according to the present invention was executed after administering ketamine to a mouse through peritoneal injection at a dose of 150 mg/kg to anesthetize the mouse and fixing the head of the mouse to a stereotaxic instrument. EEG electrodes were inserted into both the right frontal lobe and the left frontal lobe. More particularly, a correct fixing position was set by calculating a correct coordinate having the front side of 2.8 mm and each lateral side of 0.8 mm with reference to the bregma, via the stereotaxic instrument. A grounding electrode was inserted into the occipital lobe. After inserting the electrodes and 1 week recovery period, the mouse was placed in an EEG chamber to measure a brain wave for 1 hour. EEG signals were amplified using a Grass model 7H polygraph (Grass Technologies) and digitalized at a sampling frequency of 2000 Hz using DIGIDATA 1320A (Molecular Devices), followed by acquisition of data using pClamp8.0 program (Axon Instruments) and analysis thereof.

Compound | movement distance of the normal mouse in open space (normal mouse (wild type)) | movement distance of the GIT1 knock-out mouse in open space (hyperactivity) (GIT1 knock-out mouse [1]) | object recognition ability (novel object recognition) (GIT1 knock-out mouse [2]) | abnormal theta waveform in the frontal lobe (EEG) (GIT1 knock-out mouse [3])
COC(=O)C(c1ccccc1)C1CCCCN1 (stereo not drawn) [methylphenidate] | considerably long distance | significant recovery | – | –
CC(N)Cc1ccccc1 (stereo not drawn) [amphetamine] | considerably long distance | significant recovery | can be recovered | favorably recovered
